Each structure is given as a SMILES string. Entries after “also recorded” stand apart in the source; their conditions may differ.

This assay deals with P. falciparum strain NF54-hsp70-luc stage V gametocytes fed to Anopheles stephensi mosquitoes. Nature of the assay: whole plant or invertebrate. It is filed as in vivo, Plasmodium falciparum. To be noted: for transmission blocking activity in SMFA (words, rank): tested at 1 and 10 µM. On the procedure:
The above selected 30 compounds were subjected to a phenotypic male gamete exflagellation assay. This assay measures the viability of male gametocytes by quantitating the final step of maturation into motile microgametes in vitro[24]. This process naturally occurs in the mosquito gut within minutes from the blood meal. The acquisition of time lapse videos of gamete motility in bright field microscopy and the subsequent analysis to count exflagellation centres were performed in an automated HTS format in 384-well plates. The compounds were tested in two independent biological replicates at the concentration of 1 µM. […] The standard membrane feeding assay (SMFA) is used to measure the parasite transmission through mosquito. In this assay, mature stage V gametocytes of the P. falciparum strain NF54-hsp70-luc were treated with 1 and 10 µM of the nine selected compounds for 24 h, added with human red blood cells and serum to achieve a haematocrit of 50% and then fed to mosquitoes. Luminescence was analyzed in the mosquito salivary glands 8 days post-feeding.
SMFA was performed commercially by TropiQ Health Sciences (Nijmegen, The Netherlands). Test samples were diluted in DMSO and then in RPMI medium (Gibco, 51800043) to achieve a final DMSO concentration of 0.1%. Diluted samples were combined with stage V gametocytes from P. falciparum strain NF54-hsp70-luc and incubated for 24 h. Subsequently, human red blood cells and human serum with the sample were added to achieve a haematocrit of 50%. The blood meal was fed to two-day old Anopheles stephensi mosquitoes that were starved the night prior to the blood meal. […] Mosquito infection was analyzed 8 days post-feeding by luminescence measurements of whole mosquitoes as described previously. For each feeder, luminescence intensity was analyzed in 15–24 mosquitoes per feeder (N = 1, n = 15–24). Luminescence background levels were determined from 15–24 uninfected mosquitoes. Controls: vehicle (0.1% DMSO) in duplicate.

On to `COc1cc(CNCC2CCNCC2)ccc1OCc1cccc(Cl)c1` [Compound 53], for which the “SMFA (average # of events) 10 µM” value was 6.29 ± 1.85. Further, the “SMFA (average # of events) 1 µM” value (1 µM) amounted to 10.04 ± 12.81. For the same compound, for the setting “1 µM, 24 h treatment”, the “transmission blocking in SMFA” value was “most active; also recorded: equivalent to that of the positive control MMV0048”. Besides, the inhibition at 1 µM (read-out: inhibition of parasite transmission (SMFA)) is around 100%.
As to `COc1ccccc1Cn1cc2c(-c3ccc(F)cc3)nnc-2c2cc(OC)c(OC)cc21` [Compound 31], the “SMFA (average # of events) 10 µM” value amounted to 1559.87 ± 983.2. The “SMFA (average # of events) 1 µM” value (1 µM) worked out at 2637.13 ± 1570.14. Moreover, the “transmission blocking activity in SMFA (words, rank)” value (“transmission blocking activity” for short) (24 h treatment) was “moderate transmission blocker”.
On to `O=C(c1ccc([N+](=O)[O-])o1)N1CCC(Cn2cnc3ccccc32)CC1` [Compound 69], for which the “SMFA (average # of events) 10 µM” value was 6.17 ± 1.81. Moreover, the “SMFA (average # of events) 1 µM” value (1 µM) was 2021.92 ± 1839.86.
On to `OC(c1ccc(Cl)cc1)C1CCN(CCCN2CCC(C(O)c3ccc(Cl)cc3)CC2)CC1` (stereo not drawn) [Compound 13], for which the “SMFA (average # of events) 10 µM” value worked out at 7.92 ± 1.44. Further, the “SMFA (average # of events) 1 µM” value (1 µM) was found to be 488.21 ± 436.95. In addition, where the note is “24 h treatment”, the “transmission blocking activity” value is on record as “second most active”.
With `COc1ccc(NC(=O)Nc2ccc(Nc3nc(C)cc(Nc4ccc(C)cc4)n3)cc2)cc1` [Compound 65], the “SMFA (average # of events) 10 µM” value came out at 5.96 ± 1.99. The “SMFA (average # of events) 1 µM” value (1 µM) came out at 4000.86 ± 3085.37.
Regarding `Cc1ccc(Nc2cc(C)nc(Nc3ccc(NC(=O)c4cc5ccccc5oc4=O)cc3)n2)cc1` [Compound 63], the “SMFA (average # of events) 10 µM” value turned out to be 6.33 ± 1.79. In addition, for the setting “1 µM”, the “SMFA (average # of events) 1 µM” value amounted to 2365.33 ± 1952.29.
On the same counts, the results for `COc1ccc(Nc2cc(C)nc(Nc3ccc(NC(=O)c4cc(C)cc(C)c4)cc3)n2)cc1` [Compound 64] are 3885.67 ± 4295.41 and 3707.46 ± 3510.94.
Take `Clc1ccc(Nc2nc(-c3ccccn3)cs2)nc1` [Compound 39]: the “SMFA (average # of events) 10 µM” value stood at 7.33 ± 2.82. Further, the “SMFA (average # of events) 1 µM” value (1 µM) is 1612.33 ± 1234.03. For the same compound, the “transmission blocking activity” value (24 h treatment) was “efficiently blocks parasite transmission”.
On the same counts, the results for `Cc1ccc2nc(-c3ccccc3)c(CSc3cccc[n+]3[O-])n2c1` [Compound 16] are 9.5 ± 9.34, 1226.92 ± 1130.89 and “third most active”.

The values are drawn from publication PMC9170688, “Gametocyte-specific and all-blood-stage transmission-blocking chemotypes discovered from high throughput screening on Plasmodium falciparum gametocytes” (Communications Biology, 2022).
